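The compound was tested at five concentrations on cells cultured in 96-well plates, with a 48-hour exposure period. The concentration for 50% growth inhibition is given as GI50. At the TGI there is no net growth.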
Key:
Assay in all cases: growth of human tumour cells (NCI), 48 h
COLO 205 colon = test system: COLO 205 colon
EKVX NSCLC = test system: EKVX NSCLC
OVCAR-4 ovarian = test system: OVCAR-4 ovarian
OVCAR-8 ovarian = test system: OVCAR-8 ovarian
SK-MEL-2 melanoma = test system: SK-MEL-2 melanoma
SN12C renal = test system: SN12C renal
SNB-19 CNS = test system: SNB-19 CNS
UO-31 renal = test system: UO-31 renal
HS 578T breast = test system: HS 578T breast
MDA-MB-435 = test system: MDA-MB-435

Row | Structure (SMILES) | TGI (COLO 205 colon) [µM] | TGI (EKVX NSCLC) [µM] | TGI (OVCAR-4 ovarian) [µM] | TGI (OVCAR-8 ovarian) [µM] | TGI (SK-MEL-2 melanoma) [µM] | TGI (SN12C renal) [µM] | TGI (SNB-19 CNS) [µM] | TGI (UO-31 renal) [µM] | GI50 (COLO 205 colon) [nM] | GI50 (HS 578T breast) [nM] | TGI (HS 578T breast) [µM] | GI50 (MDA-MB-435) [nM] | TGI (MDA-MB-435) [µM] | GI50 (OVCAR-4 ovarian) [nM] | GI50 (OVCAR-8 ovarian) [nM] | GI50 (SK-MEL-2 melanoma) [nM] | GI50 (SN12C renal) [nM] | GI50 (SNB-19 CNS) [nM] | GI50 (UO-31 renal) [µM] | GI50 (EKVX NSCLC) [nM]
1 | Cc1nc2ccccc2nc1CC(=O)C(=O)Nc1ccc(Cl)cc1Cl | > 100 | > 100 | > 100 | > 100 | > 100 | > 100 | > 100 | > 100 |  |  |  |  |  |  |  |  |  |  |  | 
2 | Cn1c([N+](=O)[O-])cnc1C=C1C(=O)c2ccccc2C1=O | 15.9 |  | 55.4 | 6.54 | 6.24 | 16.1 | 44.5 | 16.2 | 4830 | 2430 | 8.71 | 2670 | 11.7 | 6360 | 2180 | 2460 | 3830 | 15100 | 3.83 | 
3 | Cc1cccc(NC(=O)c2sc3nc4c(cc3c2N)C(=O)CCC4)c1 |  |  | 32.5 | > 91.9 | > 54.2 | > 63.8 | > 100 | 51.2 | 231 | 291 | 12.9 | 30.2 | 0.126 | 706 | 1230 | 266 | 740 | 464 | 13.9 | 
4 | COc1cc(Nc2cnc3ccc(C(F)(F)F)cc3n2)cc(OC)c1OC | > 100 | > 100 |  | > 100 | > 100 | > 100 | > 100 | > 100 |  |  |  |  |  |  |  |  |  |  |  | 
5 | O=C1[C@@H]2C(c3c(Cl)cccc3Cl)=NO[C@@H]2C(=O)N1c1ccc(Cc2ccc(N3C(=O)[C@H]4C(c5c(Cl)cccc5Cl)=NO[C@H]4C3=O)cc2)cc1 | > 100 | > 100 | > 100 | > 100 | > 100 | > 100 |  | > 100 |  |  |  |  |  |  |  |  |  |  |  | 
6 | COc1ccc2sc3c(NCCCN)nc4ccccc4c3c(=O)c2c1 | 3.71 | 3.39 | 3.56 |  | 3.98 | 3.11 |  | 2.82 | 1800 |  |  | 1740 | 3.21 | 1860 |  | 2000 | 1630 |  | 1.43 | 1750
7 | O=C1NC2=C(CCCCC/C2=N\O)C12CCCCCC2 | > 100 | > 100 | > 100 | > 100 | > 100 | > 100 | > 100 | > 100 |  |  |  |  |  |  |  |  |  |  |  | 
8 | CCc1cccc(C)c1NC(=O)CCc1nc(=S)[nH][nH]1 |  | > 100 | > 100 | > 100 | > 100 | > 100 | > 100 | > 100 |  |  |  |  |  |  |  |  |  |  |  | 
9 | N#C/C(=C\c1cc(OCc2ccccc2)c(OCc2ccccc2)cn1)C(N)=O | > 100 | > 100 | > 100 | > 100 | > 100 | > 100 | > 100 | > 100 |  |  |  |  |  |  |  |  |  |  |  | 
10 | N#CC(C(=O)C(=O)Nc1c(Cl)cccc1Cl)c1ccccc1 (centres undefined) | > 100 | > 100 | > 100 | > 100 | > 100 | > 100 | > 100 | > 100 | > 100000 |  |  |  |  | > 100000 |  | > 100000 | > 100000 | > 100000 | > 100 | > 100000
11 | COC(=O)C1C(C(=O)OC)C2C(=O)C3C(C(=O)OC)C(C(=O)OC)C3C(=O)C12 (centres undefined) | > 100 | > 100 | > 100 | > 100 | > 100 | > 100 | > 100 |  |  |  |  |  |  |  |  |  |  |  |  | 
12 | O=C(NC12CC3CCC1CC(C3)C2)[C@@H]1CCCN1C(=O)OCc1ccccc1 (some centres undefined) | > 100 | > 100 |  | > 100 | > 100 | > 100 | > 100 | > 100 |  |  |  |  |  |  |  |  |  |  |  | 
13 | O=C1NC(=O)c2c1n(Cc1ccccc1)c(=O)n2Cc1ccccc1 | > 100 | > 100 | > 100 | > 100 | > 100 | > 100 | > 100 | > 100 |  |  |  |  |  |  |  |  |  |  |  | 
14 | Cc1nc(N)nc(CCC(=O)Nc2cccc(C(F)(F)F)c2)c1-c1ccc(Cl)cc1 | > 100 | > 100 | > 100 | > 100 | > 100 | > 100 | > 100 | > 100 |  |  |  |  |  |  |  |  |  |  |  | 
15 | COc1cc([C@@H]2c3cc4c(cc3[C@@H](NC(=O)c3ccc(C#N)cc3)C3COC(=O)[C@@H]32)OCO4)cc(OC)c1O (some centres undefined) | 16.4 | 5.73 | > 100 | 6.38 | 5.56 | 1.51 | 4.65 | 15.3 |  |  |  |  |  |  |  |  |  |  |  | 
16 | O=[N+]([O-])c1cccc(C2=NN(c3ccccc3)C3c4cc(Br)ccc4OCC23)c1 (centres undefined) | > 100 | > 100 |  | > 100 | > 100 |  | > 100 | > 100 |  |  |  |  |  |  |  |  |  |  |  | 
17 | COc1ccc(C(=O)c2cc(OC)c(OC)c(OC)c2OC)cc1O | 34.3 | > 100 | > 100 | > 100 | > 100 | > 100 | > 100 | > 100 | 8270 | 3410 | > 100 |  |  | 6140 | 4060 | 4280 | 6640 | 4490 | 5.02 | 28600
18 | CCCCCOc1ccc(/C=N/Nc2cc(C)nc3ccc(Cl)cc23)cc1 | 3.61 | 3.07 | 3.22 | 4.23 | 3.17 | 3.22 | 3.41 | 2.93 | 1890 |  |  | 1750 | 3.21 | 1720 | 1980 | 1700 | 1710 | 1870 | 1.56 | 1670
19 | CC(=O)O[C@H]1C(=O)[C@@]2(C)C([C@H](OC(=O)c3ccccc3)[C@]3(O)C[C@H](OC(=O)[C@H](O)[C@@H](NC(=O)c4ccccc4)c4ccccc4)C(C)=C1C3(C)C)[C@]1(OC(C)=O)CO[C@@H]1C[C@@H]2O (some centres undefined) | 0.0246 |  | > 50 | > 50 | > 50 | > 50 | > 50 | > 50 | < 5 |  | > 50 |  |  | 198 | 8.04 | 14.9 | 14.2 | 13.5 | 1.41 | 

Reference: PubChem BioAssay (NCI)
